Measurements reported in patent US20220241228A1, “Treatment of cholangiopathies” (CymaBay Therapeutics, Inc., priority 2021, published 2022).
Read-outs that look alike come from different tables or passages of the source. One block for each molecule: values may come before it.

What was measured:
PBC patients [1] = settings: 12-month trial, cited from earlier work
PPARα = target: T1, PPARα (Homo sapiens, UniProt Q07869); assay: Specificity of seladelpar compared with PPARα; format: biochemical; settings: PPARδ versus PPARα
T1 sequence (Q07869 1-468): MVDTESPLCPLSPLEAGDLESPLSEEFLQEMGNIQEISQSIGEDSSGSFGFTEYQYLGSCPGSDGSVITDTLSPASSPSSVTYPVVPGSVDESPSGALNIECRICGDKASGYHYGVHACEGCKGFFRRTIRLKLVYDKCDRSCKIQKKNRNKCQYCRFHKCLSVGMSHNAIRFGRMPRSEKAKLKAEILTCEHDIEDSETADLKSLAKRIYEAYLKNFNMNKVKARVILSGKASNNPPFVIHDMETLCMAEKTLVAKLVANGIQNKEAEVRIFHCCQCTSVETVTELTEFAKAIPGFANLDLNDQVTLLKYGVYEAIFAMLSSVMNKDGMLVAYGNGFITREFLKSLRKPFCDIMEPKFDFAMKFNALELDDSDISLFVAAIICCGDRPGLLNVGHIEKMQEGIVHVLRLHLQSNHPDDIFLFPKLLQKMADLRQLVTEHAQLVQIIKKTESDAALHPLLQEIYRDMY
Excerpt: It is specific (>600-fold and >2500-fold compared with PPARα and PPARγ receptors). PPARδ activation stimulates fatty acid oxidation and utilization, improves plasma lipid and lipoprotein metabolism, glucose utilization, and mitochondrial respiration, and preserves stem cell homeostasis.

subjects with PSC = assay: Randomized placebo-controlled 24-week trial in primary sclerosing cholangitis (Example 2); format: in vivo, human; settings: 5, 10, or 20 mg/day orally once/day for 24 weeks
Description: Trial subjects are adult, male or female, with a diagnosis of PSC by at least two of the following three criteria: (a) historical evidence of an elevated AP >ULN from any prior laboratory result, (b) liver biopsy consistent with PSC, and (c) abnormal cholangiography consistent with PSC as measured by MRCP, ERCP, or percutaneous transhepatic cholangiography; on a stable and recommended dose of UDCA ≤20 mg/Kg/day for the past six months or at least twelve weeks off UDCA treatment; and intolerant of, or having an inadequate response to, obeticholic acid and/or a fibrate. Other criteria include ALP ≥1.5×ULN, TBIL ≤2×ULN, ALT and AST both ≤5×ULN, eGFR >60 mL/min/1.73 m^2, platelets ≥140×10^3/μL, INR ≤1.3 (in the absence of warfarin or other anticoagulant therapy), and albumin ≥3.5 g/dL. Exclusion criteria include clinically significant acute or chronic liver disease of an etiology other than PSC, a diagnosis of overlapping autoimmune hepatitis (AIH) and PSC, secondary or IgG4 related sclerosing cholangitis, small duct PSC, presence of a cholangiocarcinoma on cholangiography or MRI, bile duct stenting, history, evidence, or high suspicion of cholangiocarcinoma or other hepatobiliary malignancy, presumptive or diagnosed acute cholangitis within twelve weeks, and evidence of compensated or decompensated cirrhosis. […]

[2] = system: Subjects with primary biliary cholangitis; assay: Pooled open-label Phase 2 and placebo-controlled Phase 3 studies of seladelpar in PBC subjects intolerant of, or with inadequate response to, obeticholic acid and/or a fibrate; format: in vivo, human; settings: for Composite endpoint met / ALP ≤ ULN / Mean change in ALT / Mean change in TBIL / Mean change in ALP: three months; for Composite endpoint met: ALP <1.67×ULN, >15% decrease in ALP, and TBIL ULN; for Mean change in ALP: from baseline
Excerpt: The trial subjects were adult, male or female, with a diagnosis of PBC by at least two of the following three criteria: (a) a history of ALP above the upper limit of normal (ULN) for at least six months, (b) positive anti-mitochondrial antibody titers > 1/40 on immunofluorescence or M2 positive by enzyme linked immunosorbent assay or positive PBC-specific antinuclear antibodies, and (c) documented liver biopsy result consistent with PBC, on a stable and recommended dose of UDCA for the past twelve months or UDCA intolerant, and ALP ≥1.67×ULN. Exclusion criteria included AST or ALT ≥3×ULN, TBIL ≥2×ULN, autoimmune hepatitis or a history of chronic viral hepatitis, PSC, the current use of fibrates or simvastatin, the use of colchicine, methotrexate, azathioprine, or systemic steroids in the previous two months, the use of an experimental treatment for PBC, and the use of an experimental or unapproved immunosuppressant. […] Efficacy was assessed on subjects treated for three months. The composite endpoint was the responder rate for subjects achieving ALP <1.67×ULN, >15% decrease in ALP, and TBIL ULN. Additional endpoints were ALP ULN, ALP change from baseline, and other markers of liver function. Safety was assessed over one year. […] Fifty-one subjects were treated for 3 months; and 37 were assessed; with results in the table below: A safety analysis was performed on all 71 subjects.

[3] = system: patients with primary biliary cholangitis; settings: over a 52-week period; cited from earlier work
PBC patients [4] = settings: cited from earlier work
[5] = PBC subjects intolerant of, or inadequate response to, obeticholic acid and/or a fibrate

Structure (SMILES): CC[C@H]1[C@@H](O)[C@@H]2[C@H](CC[C@]3(C)[C@@H]([C@H](C)CCC(=O)O)CC[C@@H]23)[C@@]2(C)CC[C@@H](O)C[C@@H]12 [OCA, 6α-ethylchenodeoxycholic acid]
- patients with severe pruritus (PBC patients [1]; OCALIVA 10 mg arm): 23%
- patients with severe pruritus (PBC patients [1]; OCALIVA titration arm): 19%

- specificity compared with PPARα (PPARα): > 600 fold
Structure (SMILES): CCO[C@H](COc1ccc(C(F)(F)F)cc1)CSc1ccc(OCC(=O)O)c(C)c1 [Seladelpar, [4-({(2R)-2-ethoxy-3-[4-(trifluoromethyl)phenoxy]propyl}sulfanyl)-2-methylphenoxy]acetic acid]
- ALP (subjects with PSC): dose-related reductions
- PSC-related symptoms (subjects with PSC): improvements
- Pruritus adverse events experienced ([2]; 5 mg/day orally once/day): 15%
- Composite endpoint met ([2]; 5 mg/day orally once/day as L-lysine dihydrate salt): 40%
- ALP ≤ ULN ([2]; 5 mg/day orally once/day): 0
- Mean change in ALT ([2]; 5 mg/day orally once/day): −13%
- Mean change in TBIL ([2]; 5 mg/day orally once/day): −3%
- Mean change in ALP ([2]; 5 mg/day orally once/day): −31%
- subjects who experienced a serious adverse event ([2]; 5 mg/day, safety analysis on all 71 subjects, all unrelated to seladelpar): three
- subjects who discontinued treatment due to adverse events ([2]; 5 mg/day, safety analysis on all 71 subjects, one ALT/AST elevation, one gastroesophageal reflux disease): two
- Pruritus adverse events experienced ([2]; 10 mg/day orally once/day): 7%
- Composite endpoint met ([2]; 10 mg/day orally once/day as L-lysine dihydrate salt): 79%
- ALP ≤ ULN ([2]; 10 mg/day orally once/day): 21%
- Mean change in ALT ([2]; 10 mg/day orally once/day): −21%
- Mean change in TBIL ([2]; 10 mg/day orally once/day): −9%
- Mean change in ALP ([2]; 10 mg/day orally once/day): −45%
- biochemical markers of cholestasis [2, 5]: meaningful improvement
- safety and tolerability [2, 5]: safe, well tolerated
- ALP and GGT [3]: statistically significant decreases
- ALT [3]: statistically significant decrease
- total bilirubin levels [3]: stable

Structure (SMILES): C[C@H](CCC(=O)O)[C@H]1CC[C@H]2[C@@H]3[C@@H](O)C[C@@H]4C[C@H](O)CC[C@]4(C)[C@H]3CC[C@]12C [UDCA, ursodeoxycholic acid]
- patients reported to be intolerant to treatment (PBC patients [4]): about 5%
